According to US6605595B1, “Avermectin derivatives” (The Kitasato Institute, priority 1999, dated 2003):

Test system: Adult Musca domestica of WHO(N) species
Assay: Filter test on flies (Musca domestica), ingestion/contact method
Type: in vivo
Conditions: time of reading not stated (1, 3, 5 and 24 hours)
Method: Filter test on flies (Musca domestica)—ingestion/contact method
Test animals: Adult Musca domestica of WHO(N) species
In order to prepare a suitable formulation a solution of active compound is prepared froom 20 mg of active compound and 1 ml of DMSO. The active compound solution is diluted with water to the concentration required in each case.
2 ml of this preparation of active compound are pipetted onto filter paper discs (of a diameter of 9.5 cm) contained in Petri dishes of the appropriate size. After drying the filter discs, 100 μl of the active compound formulation and 400 μl of a sugar solution are poured onto a block of household sponge cloth measuring 1 cm^2 and placed in a blister well on the filter disc. 25 CO2-intoxicated test animals are transferred to the Petri dishes and covered.
After 1, 3, 5 and 24 hours the activity of the active compound preparation is determined. 100% means that all of the flies have been destroyed; 0% means that none of the flies have been destroyed.

CCC(C)C1OC2(C=CC1C)CC1CC(CC=C(C)C(OC3CC(OC)C(OC4CC(OC)C(=CCNOC)C(C)O4)C(C)O3)C(C)C=CC=C3COC4C(O)C(C)=CC(C(=O)O1)C34O)O2 (centres unmarked) [Compound 69]
activity (100% = all of the flies destroyed) (10 ppm): 50% | activity (100% = all of the flies destroyed) (100 ppm): 100%
